Measured values from patent publication US10905757B2, “Cross-reactive T cell epitopes of HIV, SIV, and FIV for vaccines in humans and cats” (priority 2012, dated 2021).
“Also recorded” adds a separate entry of the source. Ends that are not written are not given here.

Assays:
Type in all cases: cell-based, human
[1] = tested on: CD8+ T cells from HIV+ subjects; experiment: Intracellular cytotoxin staining (ICS: perforin, GrzA, GrzB, CD107a), CD8+ T cells from HIV+ subjects
Procedure: Briefly, 1×10^6PBMCs (freshly isolated) are stimulated with 20 μg of peptides for 6 hours in a total volume of 200 μL in a 96-well plate in presence of Golgi transport inhibitor (37° C., 5% CO2). The cells are processed as previously described (Horton et al. (2007)). Cells were stained with the LIVE/DEAD® fixable yellow dye (Invitrogen, Eugene, Oreg.). The monoclonal antibodies fluorochome-conjugated to human cytokines used are: APC-H7 to CD3 (clone SK7); BD Horizon V450 to CD4 (clone RPA-T4); Qdot to CD8 (clone 3B5); PE-cy7 to IFN-γ (clone 4S.B3); APC to IL-2 (clone MQ1-17H12) PerCP to perforin (clone B-D48); Alexa F1.700 to granzyme-B (clone GB11) and PE to granzyme-A (clone CB9). The flow cytometry data is collected using BD LSRII and analyzed with the FACS DIVA software.
The ICS analysis (Horton et al. (2007)) involved stimulating 0.5-1.0×10^6 freshly isolated PBMC for 6 h with the same peptide stimulant and culture conditions as the proliferation analysis in the presence of 1 μg/mL of Golgi transport inhibitor and monensin followed by labeling with LIVE/DEAD fixable yellow dye and then treatment with anti-CD16/CD32 antibody and T-cell phenotypic antibodies. The cells were subsequently fixed and permeabilized with Cytofix/Cytoperm solution (BD Biosciences) before reaction with anti-cytotoxin antibodies. The antibodies consisted of anti-CD3 APC-H7, anti-CD4 BD Horizon V450, and anti-CD8 FITC followed by anti-GrzB Alexa 700 and anti-GrzA PE (all from BD Biosciences), and anti-perforin PerCP (Abcam, Boston, Mass.).
(§1) In both analyses, 1.0-2.0×10^4 cells were fixed in phosphate-buffered saline (PBS) containing 2% paraformaldehyde and analyzed on BD LSRII using […] Software (BD Biosciences), with a positive threshold of 3% CFSE^low for CFSE-proliferation and 1% T cells expressing cytotoxin for ICS. The final value for each subject was derived after subtraction of the subject's medium control and the average value of peptide-stimulated cells from uninfected control subjects.
(§2) Flow cytometry (FACS) for measuring CFSE-proliferation and intracellular cytokine staining (ICS). Carboxyfluorescein diacetate succinimide ester (CFSE)-proliferation analysis was performed according to the manufacturer's protocol (Invitrogen) and processed as previously described (Lichterfeld et al. 2004) using the following modification: 2.5-5.0×10^5 CFSE-labeled PBMC stimulated for 4-5 days (37° C., 5% CO2) with 15-30 μg of peptides in culture media (AIM V medium, 25 μg/mL gentamycin, and 10% heat-inactivated fetal bovine serum). The ICS analysis was performed as previously described (Horton et al. 2007; Pattacini et al. 2012).
(§3) The antibodies used for the proliferation analysis consisted of anti-CD4 allophycocyanin (APC) anti-CD3 APC-H7, and anti-CD8 Pacific Blue, and those for ICS were anti-CD3 APC-H7, anti-CD4 BD Horizon V450, anti-CD8 FITC, anti-granzyme B (GrzB) Alexa 700, anti-granzyme A (GrzA) PE (BD Biosciences, Cat #555349, 560176, 558207, 560345, 555366, 560213, 558904), and anti-perforin PerCP (Abcam, Cat #ab86319). Both analyses were performed with BD LSRII and […]™ Software (BD Biosciences), using a positive threshold of >1% CFSE^low for CFSE-proliferation except for ICS studies with threshold of >0.1% T cells expressing cytotoxin. The final value for each subject was derived after subtracting the result of each HIV^+ subject with the media control followed by subtraction with the average response of the media-control subtracted HIV^− subjects.

[2] = tested on: CD4+ or CD8+ T cells from HIV+ subjects; experiment: Intracellular cytotoxin staining (ICS), CD4+ or CD8+ T cells from HIV+ responders; conditions: for cytotoxin / CTL-associated activity (in words): RT pools and peptides; for cytotoxin and CD107a expression in CD4+ and CD8+ T cells (in words): p24 peptides
Procedure: Briefly, 1×10^6PBMCs (freshly isolated) are stimulated with 20 μg of peptides for 6 hours in a total volume of 200 μL in a 96-well plate in presence of Golgi transport inhibitor (37° C., 5% CO2). […] Cells were stained with the LIVE/DEAD® fixable yellow dye (Invitrogen, Eugene, Oreg.). […] The flow cytometry data is collected using BD LSRII and analyzed with the FACS DIVA software.
The cells were subsequently fixed and permeabilized with Cytofix/Cytoperm solution (BD Biosciences) before reaction with anti-cytotoxin antibodies. The antibodies consisted of anti-CD3 APC-H7, anti-CD4 BD Horizon V450, and anti-CD8 FITC followed by anti-GrzB Alexa 700 and anti-GrzA PE (all from BD Biosciences), and anti-perforin PerCP (Abcam, Boston, Mass.).
as §1
Flow cytometry (FACS) for measuring CFSE-proliferation and intracellular cytokine staining (ICS).
Both analyses were performed with BD LSRII and […]™ Software (BD Biosciences), using a positive threshold of >1% CFSE^low for CFSE-proliferation except for ICS studies with threshold of >0.1% T cells expressing cytotoxin.

[3] = tested on: CD3+CD8+ T cells from HIV+ subjects; experiment: CFSE-proliferation, CD3+CD8+ T cells from HIV+ subjects; conditions: for CD8^+ T-cell Responder Frequency: responders/tested; for responder frequency of CD8+ T-cell proliferation to individual F3 peptides: eight F3 responders
Procedure: (§4) 2×10^5-5×10^5 CFSE labeled PBMCs were incubated with 15-20 μg of peptides in 600 μL of RPMI media with 10% FBS for 5 days at 37° C. (5% CO2). After harvesting, they were labeled with allophycocyanin (APC), APC-H7, and Pacific Blue labeled monoclonal antibodies (MAb) to human CD3, CD4, and CD8, respectively and analyzed for T-cell proliferation by flow cytometry using BD LSRII (BD Biosciences). The proliferating CD4^+ or CD8^+ T cell populations were defined from the CD3^+ cell population as either CD3^+CD8^+ or CD3^+CD4^+T cells (mutually exclusive) with low CFSE (CFSE^low) staining.
(§5) Flow cytometry (FACS) for carboxyfluoresein diacetate succinimide ester (CFSE)-proliferation and intracellular cytotoxin staining (ICS). The CFSE-proliferation analysis was performed on PBMC according to the manufacturer's protocol (Invitrogen, Carlsbad, Calif.) and processed as previously described (Lichterfeld et al. (2004)). Modifications consisted of using 2.0-5.0×10^5 CFSE-labeled cells stimulated for 5 days (37° C., 5% CO^2) with 30 μg/well of total peptides in a pool (15 μg/well for individual peptide, Table 10) or 5 μg/mL PHA in AIM V medium containing 25 μg/mL of gentamycin and 10% heat-inactivated human serum. Subsequently these cells were harvested and labeled with the LIVE/DEAD fixable yellow dye (Invitrogen) and then treated 5 min with anti-CD16/CD32 antibody (Biolegend, San Diego, Calif.) for blocking non-specific binding before phenotype-specific antibodies. The following antibodies were used for the CFSE-proliferation analysis: anti-CD4 APC, anti-CD3 APC-H7, and anti-CD8 Pacific Blue (BD Biosciences, San Jose, Calif.).
as §1, §2, §3

[4] = tested on: CD3+CD4+ T cells from HIV+ subjects; experiment: CFSE-proliferation, CD3+CD4+ T cells from HIV+ subjects; conditions: for CD4^+ T-cell Responder Frequency: responders/tested
Procedure: as §4, §5, §1, §2, §3

[5] = small 9-13mer peptides, yr 4, responders to Fp9 or Fp14 pool via both proliferation and IFNγ
[6] = large 13-15mer peptides, yr 2, responders to Fp9 or Fp14 pool via CFSE proliferation

Molecule	CD8^+ T-cell Responder Frequency [3, 5]	CD8^+ T-cell Responder Frequency (%) [3, 5]	CD4^+ T-cell Responder Frequency [4, 5]	CD4^+ T-cell Responder Frequency (%) [4, 5]	cytotoxin and CD107a expression in CD4+ and CD8+ T cells (in words) [2]	further results
WRMLIDFRVLNKL [F3-4]						cytotoxin expression / CTL-associated activity in CD8+ T cells (in words) [1]: highest frequency and levels; cytotoxin / CTL-associated activity (in words) [2]: induced CTL-associated activities
Fp9-2/3b (APARMQCRA)	3/9	(33) %	0/9	(0) %		
QEQNTAEVKL [Fp14-1a]					high cytotoxin and CD107a expression	
NPWNTPVFAIKKK [F3-1]						cytotoxin / CTL-associated activity (in words) [2]: induced CTL-associated activities
Fp9-3f (APARMQCRAWYL)	4/9	(44) %	1/9	(11) %		
Fp14-1/2a (NTAEVKLYL)	4/10	(40) %	1/10	(10) %		
Fp14-2/3c (AEVKLYLKQSL)	9/10	(90) %	5/10	(50) %		
CSCC[C@H](NC(=O)[C@H](Cc1c[nH]c2ccccc12)NC(=O)[C@H](CC(N)=O)NC(=O)[C@H](CCCCN)NC(=O)[C@@H](NC(=O)[C@H](C)NC(=O)[C@H](C)NC(=O)[C@H](CC(=O)O)NC(=O)[C@@H](N)[C@@H](C)O)C(C)C)C(=O)N[C@H](C(=O)O)[C@@H](C)O [Sp14-1c]					slightly lower number of responses	
Fp14-3/4g (YLKQSLSIA)	6/10	(60) %	0/10	(0) %		
IDFRVLNKLTDKGA [F3-5]						responder frequency of CD8+ T-cell proliferation to individual F3 peptides [3]: 3 of 8
KKKSGKWRMLIDFRV [F3-3]						cytotoxin / CTL-associated activity (in words) [2]: induce cytotoxin expression
QASQEVKNWM [Hp15-1a]					high cytotoxin and CD107a expression	
AEARFAPARMQCRAW [Fp9-2]						CD8^+ T-cell Responder Frequency (%) [3, 6]: (43) %; CD8^+ T-cell Responder Frequency [3, 6]: 3/7; Fp9 responders whose CD8+ T cells proliferate to individual 13-15mer peptide ([3]; seven Fp9 responders): 3 of 7; CD4^+ T-cell Responder Frequency (%) [4, 6]: (14) %; CD4^+ T-cell Responder Frequency [4, 6]: 1/7
Fp9-1/2a (EARFAPARM)	5/9	(56) %	0/9	(0) %		
AEQASQEVKN [Hp15-1c]					high cytotoxin and CD107a expression	
Fp14-2/3b (AEVKLYLKQ)	3/10	(30) %	1/10	(10) %		
TPVFAIKKKSGKWRM [F3-2]						responder frequency of CD8+ T-cell proliferation to individual F3 peptides [3]: 3 of 8
Fp9-3e (ARMQCRAWYL)	3/9	(33) %	1/9	(11) %		
LYLKQSLSI [Fp14-3/4e]					high frequency of cytotoxin expression	
EQQAEARFAPARM [Fp9-1]						CD8^+ T-cell Responder Frequency (%) [3, 6]: (14) %; CD8^+ T-cell Responder Frequency [3, 6]: 1/7; CD4^+ T-cell Responder Frequency (%) [4, 6]: (0) %; CD4^+ T-cell Responder Frequency [4, 6]: 0/7
QNTAEVKLYL [Fp14-1b]					high frequency of cytotoxin expression; also recorded: high cytotoxin and CD107a expression	
AEVKLYLKQSLSI [Fp14-3d]						Cytotoxins ([2]; responders to Fp9 or Fp14 peptide pools): Low Cytotoxins (only CD8)
VKNWMTQTL [Sp14-1a]					slightly lower number of responses	
